Reference: patent US20150181873A1, “HERBICIDE-RESISTANT SUNFLOWER PLANTS, POLYNUCLEOTIDES ENCODING HERBICIDE=RESISTANT ACETO HYDROXY ACID SYNTHASE LARGE SUBUNIT PROTEINS, AND METHODS OF USE” (NIDERA S.A., priority 2013, published 2015)
Values joined by “and” are separate entries in the source; they are usually repeats but may differ in a detail not shown here. Identical values can stand only once.

Legend:
Assay type in all cases: in vivo, Helianthus annuus
[1] = system: sunflower restorer line TH10 (A205V); assay: Greenhouse imazapir dose response, TH10; details: 14 DAT
Procedure: (§1) A greenhouse study was conducted to quantify and contrast the imazapir sensivity of the mutants A122T and A205V in different genetic backgrounds at the whole plant level in sunflower. Seeds of the different sunflower lines that were used in this study were obtained under field conditions.
(§2) Seeds were sown in Petri dishes and, after germination, plantlets were transplanted to pots of 10 cm of diameter in a potting media consisting of equal parts of vermiculite, soil and sand. Plants were grown in a greenhouse under natural light conditions supplemented with 400 W sodium halide lamps to provide a 16 hrs daylength. Day/night temperatures were 25 and 20° C., respectively. At the V2 stage 10 plants of each genotype were randomly assigned to each treatment consisting of […] imazapir doses (0, 40, 80, 160, 240, 320, 400 and 480 g ai/ha), and a zero-time biomass determination. Experiment was arranged as a randomized block design with a full factorial (sunflower line×treatment) arrangement of treatments and 10 replications.
(§3) On the day of herbicide application ten plants of each genotype were cut at the cotyledonal node and dried at 60° C. for 48 hrs zero-time for dried weight determination. […] Height was determined as the distance between the cotyledonal node and the apex of each plant. For root biomass determination, each plant was taken from the pot and the potting media was washed out from the roots. Above ground biomass data from each line were converted to biomass accumulation after application by subtracting the appropriate average zero-time biomass from each sample. Dry biomass data were converted to percentages of the untreated control plants within each line to allow direct comparisons between groups.

[2] = system: Conventional non-Clearfield sunflower variety; assay: Greenhouse spray injury rating, conventional variety; details: imazapyr 240 gm ai/ha, scale 0-9
Text: Sunflower lines S4897, Clearfield® sunflower varieties A, B, C and a conventional non-Clearfield variety were sprayed with three rates of imazamox (Raptor™), 100, 200 and 300 gm ai/ha plus 0.5% Sun It II and two rates of imazapyr (Arsenal™) 160 and 360 gm ai/ha plus 0.5% Sun It II when the plants were at the two to three leaf stage. Ratings were taken at 14 days after application (DAT) for injury. Injury was rated on a scale from 0 to 9 where 0=no injury to 9=dead plant. Twelve plants were sprayed per herbicide/rate treatment. Statistical analysis was conducted with STATGRAPHICS Plus 5.0 by using ANOVA and LSD procedures.
After plants were sprayed, it was realized that a height difference between S4897 and other sunflower varieties would have impacted the actual herbicide dose that was delivered. The spray boom height had been calibrated against S4897 and since the other varieties were taller and closer to the boom they would have received a greater dose of herbicide. Rates were recalibrated for the other varieties to determine the approximate dose they would have received. Assessments were made as presented in Table 2 since it was not possible to make a direct rate comparison due to the effect of the height. For example injury scores were compare for S4897 treated imazamox rate 100 gm ai/ha to the other varieties treated at 75 gm ai/ha. The treatment dose of 300 gm ai/ha for line S4897 was equivalent to the treatment of 200 gm ai/ha for the other varieties, which […].

[3] = system: sunflower genotypes carrying the A205V mutation event; assay: Greenhouse imazapir dose response, A205V genotypes together; details: 14 DAT; for biomass accumulation, Dif with control / plant height, Dif with Control / root dry weight, Dif with control: A205V mean; for biomass accumulation, % of untreated, Mean / root dry weight, % of untreated, Mean / plant height, % of untreated, Mean: six A205V genotypes; for Phytotoxicity Index, Mean: three A205V genotypes
Procedure: as §1, §2, §3

[4] = system: sunflower line GIM 5-7 (A205V); assay: Greenhouse imazapir dose response, GIM 5-7; details: GIM5-7 (A205V), 14 DAT
Procedure: as §1, §2, §3

CC(C)C1(C)N=C(c2ncccc2C(=O)O)NC1=O (stereo not shown) [Imazapyr, imazapyr]
Phytotoxicity Index ([1]; 0.5x (40 g ai/ha)): 0
biomass accumulation, % of untreated ([1]; 0.5x (40 g ai/ha)): 99.2%
plant height, % of untreated ([1]; 0.5x (40 g ai/ha)): 99.2%
root dry weight, % of untreated ([1]; 0.5x (40 g ai/ha)): 90.3%
Phytotoxicity Index ([1]; 1x (80 g ai/ha)): 0
biomass accumulation, % of untreated ([1]; 1x (80 g ai/ha)): 85.0%
plant height, % of untreated ([1]; 1x (80 g ai/ha)): 98.1%
root dry weight, % of untreated ([1]; 1x (80 g ai/ha)): 69.9%
Phytotoxicity Index ([1]; 2x (160 g ai/ha)): 3.1
biomass accumulation, % of untreated ([1]; 2x (160 g ai/ha)): 58.1%
plant height, % of untreated ([1]; 2x (160 g ai/ha)): 63.6%
root dry weight, % of untreated ([1]; 2x (160 g ai/ha)): 41.3%
Phytotoxicity Index ([1]; 3x (240 g ai/ha)): 3.9
biomass accumulation, % of untreated ([1]; 3x (240 g ai/ha)): 48.1%
plant height, % of untreated ([1]; 3x (240 g ai/ha)): 51.9%
root dry weight, % of untreated ([1]; 3x (240 g ai/ha)): 42.8%
Phytotoxicity Index ([1]; 4x (320 g ai/ha)): 5.9
biomass accumulation, % of untreated ([1]; 4x (320 g ai/ha)): 28.8%
plant height, % of untreated ([1]; 4x (320 g ai/ha)): 27.5%
root dry weight, % of untreated ([1]; 4x (320 g ai/ha)): 22.3%
Phytotoxicity Index ([1]; 5x (400 g ai/ha)): 6.9
biomass accumulation, % of untreated ([1]; 5x (400 g ai/ha)): 27.4%
plant height, % of untreated ([1]; 5x (400 g ai/ha)): 26.0%
root dry weight, % of untreated ([1]; 5x (400 g ai/ha)): 22.7%
Phytotoxicity Index ([1]; 6x (480 g ai/ha)): 6.7
biomass accumulation, % of untreated ([1]; 6x (480 g ai/ha)): 24.9%
plant height, % of untreated ([1]; 6x (480 g ai/ha)): 29.3%
root dry weight, % of untreated ([1]; 6x (480 g ai/ha)): 16.4%
Injury at 14 DAT [2]: 8.2 days
biomass accumulation, Dif with control ([3]; 0.5x (40 g ai/ha)): 5.5%
plant height, Dif with Control ([3]; 0.5x (40 g ai/ha)): 5.6%
root dry weight, Dif with control ([3]; 0.5x (40 g ai/ha)): 12.8%
biomass accumulation, Dif with control ([3]; 1x (80 g ai/ha)): 17.8%
plant height, Dif with Control ([3]; 1x (80 g ai/ha)): 10.8%
root dry weight, Dif with control ([3]; 1x (80 g ai/ha)): 29.2%
biomass accumulation, Dif with control ([3]; 2x (160 g ai/ha)): 38.4%
plant height, Dif with Control ([3]; 2x (160 g ai/ha)): 30.8%
root dry weight, Dif with control ([3]; 2x (160 g ai/ha)): 49.4%
biomass accumulation, Dif with control ([3]; 3x (240 g ai/ha)): 52.4%
plant height, Dif with Control ([3]; 3x (240 g ai/ha)): 49.6%
root dry weight, Dif with control ([3]; 3x (240 g ai/ha)): 60.8%
biomass accumulation, Dif with control ([3]; 4x (320 g ai/ha)): 64.6%
plant height, Dif with Control ([3]; 4x (320 g ai/ha)): 66.3%
root dry weight, Dif with control ([3]; 4x (320 g ai/ha)): 68.9%
biomass accumulation, Dif with control ([3]; 5x (400 g ai/ha)): 67.6%
plant height, Dif with Control ([3]; 5x (400 g ai/ha)): 68.0%
root dry weight, Dif with control ([3]; 5x (400 g ai/ha)): 69.3%
biomass accumulation, Dif with control ([3]; 6x (480 g ai/ha)): 70.0%
root dry weight, Dif with control ([3]; 6x (480 g ai/ha)): 75.6%
plant height, Dif with Control ([3]; 6x (480 g ai/ha), listed as imazapir): 68.9% and 69.8%
biomass accumulation, % of untreated, Mean ([3]; 0.5x (40 g ai/ha)): 94.5%
root dry weight, % of untreated, Mean ([3]; 0.5x (40 g ai/ha)): 87.2%
biomass accumulation, % of untreated, Mean ([3]; 1x (80 g ai/ha)): 82.2%
root dry weight, % of untreated, Mean ([3]; 1x (80 g ai/ha)): 70.8%
biomass accumulation, % of untreated, Mean ([3]; 2x (160 g ai/ha)): 61.6%
plant height, % of untreated, Mean ([3]; 2x (160 g ai/ha)): 69.2%
root dry weight, % of untreated, Mean ([3]; 2x (160 g ai/ha)): 50.6%
biomass accumulation, % of untreated, Mean ([3]; 3x (240 g ai/ha)): 47.6%
plant height, % of untreated, Mean ([3]; 3x (240 g ai/ha)): 50.4%
root dry weight, % of untreated, Mean ([3]; 3x (240 g ai/ha)): 39.2%
biomass accumulation, % of untreated, Mean ([3]; 4x (320 g ai/ha)): 35.4%
plant height, % of untreated, Mean ([3]; 4x (320 g ai/ha)): 33.7%
root dry weight, % of untreated, Mean ([3]; 4x (320 g ai/ha)): 31.1%
biomass accumulation, % of untreated, Mean ([3]; 5x (400 g ai/ha)): 32.4%
plant height, % of untreated, Mean ([3]; 5x (400 g ai/ha)): 32.0%
root dry weight, % of untreated, Mean ([3]; 5x (400 g ai/ha)): 30.7%
biomass accumulation, % of untreated, Mean ([3]; 6x (480 g ai/ha)): 30.0%
plant height, % of untreated, Mean ([3]; 6x (480 g ai/ha)): 30.2%
root dry weight, % of untreated, Mean ([3]; 6x (480 g ai/ha)): 24.4%
Phytotoxicity Index, Mean ([3]; 0.5x (40 g ai/ha)): 0
Phytotoxicity Index, Mean ([3]; 1x (80 g ai/ha)): 0
Phytotoxicity Index, Mean ([3]; 2x (160 g ai/ha)): 2.2
Phytotoxicity Index, Mean ([3]; 3x (240 g ai/ha)): 5.1
Phytotoxicity Index, Mean ([3]; 4x (320 g ai/ha)): 7.4
Phytotoxicity Index, Mean ([3]; 5x (400 g ai/ha)): 8.2
Phytotoxicity Index, Mean ([3]; 6x (480 g ai/ha)): 8.2
biomass accumulation, % of untreated ([4]; 0.5x (40 g ai/ha)): 92.9%
plant height, % of untreated ([4]; 0.5x (40 g ai/ha)): 79.1%
root dry weight, % of untreated ([4]; 0.5x (40 g ai/ha)): 79.2%
biomass accumulation, % of untreated ([4]; 1x (80 g ai/ha)): 75.1%
plant height, % of untreated ([4]; 1x (80 g ai/ha)): 76.7%
root dry weight, % of untreated ([4]; 1x (80 g ai/ha)): 56.3%
biomass accumulation, % of untreated ([4]; 2x (160 g ai/ha)): 55.1%
plant height, % of untreated ([4]; 2x (160 g ai/ha)): 57.7%
root dry weight, % of untreated ([4]; 2x (160 g ai/ha)): 40.6%
biomass accumulation, % of untreated ([4]; 3x (240 g ai/ha)): 45.6%
plant height, % of untreated ([4]; 3x (240 g ai/ha)): 55.3%
root dry weight, % of untreated ([4]; 3x (240 g ai/ha)): 40.2%
biomass accumulation, % of untreated ([4]; 4x (320 g ai/ha)): 31.8%
plant height, % of untreated ([4]; 4x (320 g ai/ha)): 27.3%
root dry weight, % of untreated ([4]; 4x (320 g ai/ha)): 34.0%
biomass accumulation, % of untreated ([4]; 5x (400 g ai/ha)): 34.2%
plant height, % of untreated ([4]; 5x (400 g ai/ha)): 37.2%
root dry weight, % of untreated ([4]; 5x (400 g ai/ha)): 48.5%
biomass accumulation, % of untreated ([4]; 6x (480 g ai/ha)): 36.8%
plant height, % of untreated ([4]; 6x (480 g ai/ha)): 30.0%
root dry weight, % of untreated ([4]; 6x (480 g ai/ha)): 43.1%
